Here are results for seven compounds from PMC10803289, “Transport and inhibition mechanism of the human SGLT2–MAP17 glucose transporter” (Nature Structural & Molecular Biology, 2023).

In assay [1] the target is T1, wild-type hSGLT2 (membrane fraction of hSGLT2 and MAP17 expressing cells) (Homo sapiens, UniProt P31639).
T1 construct: expressed in transfected cells; host or cells: Expi293 cells, crude membrane fraction
T1 sequence (P31639 1-672): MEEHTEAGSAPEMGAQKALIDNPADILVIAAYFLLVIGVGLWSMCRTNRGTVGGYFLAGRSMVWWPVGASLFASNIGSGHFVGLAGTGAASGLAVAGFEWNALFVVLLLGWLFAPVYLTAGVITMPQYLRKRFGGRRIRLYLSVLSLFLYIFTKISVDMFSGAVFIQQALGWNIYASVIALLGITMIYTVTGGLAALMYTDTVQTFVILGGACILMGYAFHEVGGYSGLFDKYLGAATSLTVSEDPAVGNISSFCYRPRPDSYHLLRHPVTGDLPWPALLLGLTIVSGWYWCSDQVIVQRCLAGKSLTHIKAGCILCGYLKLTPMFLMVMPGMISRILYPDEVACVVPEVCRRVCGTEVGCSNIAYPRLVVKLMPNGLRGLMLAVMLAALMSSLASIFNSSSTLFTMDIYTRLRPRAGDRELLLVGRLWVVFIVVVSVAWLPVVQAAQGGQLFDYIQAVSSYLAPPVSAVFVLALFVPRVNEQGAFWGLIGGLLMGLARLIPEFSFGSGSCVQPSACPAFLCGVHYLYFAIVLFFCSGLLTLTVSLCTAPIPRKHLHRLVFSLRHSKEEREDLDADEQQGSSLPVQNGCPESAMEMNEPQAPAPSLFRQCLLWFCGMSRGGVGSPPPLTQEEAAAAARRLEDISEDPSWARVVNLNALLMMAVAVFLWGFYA
T1 sequence (Q13113 1-114 partner): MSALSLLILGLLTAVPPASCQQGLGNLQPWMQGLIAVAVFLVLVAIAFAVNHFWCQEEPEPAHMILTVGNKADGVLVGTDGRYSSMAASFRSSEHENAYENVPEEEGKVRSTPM
In words: SGLT2 inhibitor-binding assay via affinity selection–mass spectrometry, crude membrane, WT. The method, then: (§1) To examine the inhibition of binding to the crude membrane, mammalian Expi293 cells were co-transfected with the hMAP17 and hSGLT2 plasmids, as described. The cells were collected and disrupted by sonication in a hypotonic buffer (50 mM HEPES–NaOH (pH 7.5), 10 mM KCl and protease inhibitor cocktail) or Na^+-free hypotonic buffer (50 mM Tris–HCl (pH 7.5), 10 mM KCl and protease inhibitor cocktail). The cell debris were removed by centrifugation (2,000g, 5 min, 4 °C). The membrane fraction was collected by ultracentrifugation (112,000g, 30 min, 4 °C) and stored at −80 °C before use. The crude membrane (250 μg per sample) was incubated with SGLT2 inhibitor in an assay buffer (100 mM NaCl and 10 mM HEPES/Tris, pH 7.4) or Na^+-free assay buffer (100 mM choline chloride and 10 mM HEPES/Tris, pH 7.4) at room temperature for 2 h. Reactions were terminated by filtration through a GF/C filter plate (Corning) presoaked in assay buffer containing 0.1% bovine serum albumin. The sample in the filter plate was washed three times with the assay buffer and eluted with acetonitrile: water (80:20, v/v). The extract solution from the filter plate was diluted with water containing candesartan as an internal standard, and the SGLT2 inhibitor concentration was quantified via LC–MS/MS.
(§2) Nonspecific binding was measured using the crude membrane of nontransfected Expi293 cells. Specific binding was calculated by subtracting nonspecific binding from the binding of hSGLT2-expressing cells. Specific binding was normalized to hSGLT2 protein expression levels, measured via FSEC. The equilibrium dissociation constant (Kd) and maximum number of binding sites (Bmax) were calculated via nonlinear regression in GraphPad Prism 8.4.3. The specific binding of the hSGLT2 mutants was normalized to the Bmax of WT hSGLT2.
(§3) The concentrations of the extract solution from the filter plate and of the cell lysate were quantified using a tandem mass spectrometry QTRAP6500 System (SCIEX) coupled with an ACQUITY UPLC system (Waters) using the internal standard method. Mobile phases A and B used 10 mM of ammonium bicarbonate and acetonitrile, respectively.

The subject of the next assay is SGLT1 and SGLT2. The following applies: cited from earlier work; for subtype specificity of inhibition (SGLT1 vs SGLT2): in words.
For assay [2], the system named is nontransfected Expi293 cells (Mock). Briefly: Nonspecific binding to crude membrane of nontransfected cells (Mock). Details: species or system human. The following applies: Mock. The method, then:
as §1, §2, §3

In a further assay the target is T2, hSGLT2 D201A (Homo sapiens, UniProt P31639, D201A).
T2 sequence (P31639 1-672 D201A): T1 sequence (P31639 1-672) with D201A
T2 sequence (Q13113 1-114 partner): T1 sequence (Q13113 1-114 partner)
Briefly: SGLT2 inhibitor-binding assay (AS-MS), crude membrane, D201A mutant. Details: expressed in transfected cells; host or cells: Expi293 cells, crude membrane fraction. The following applies: D201A mutant. The source says: (§4) hSGLT2 complementary DNA and human MAP17 cDNA were synthesized and codon-optimized for expression in human cell lines. Both cDNAs were cloned into the pcDNA3.4 vector. The hSGLT2 sequence was fused with an N-terminal signal sequence from human trypsinogen 1, a His10 tag, and sfGFP, followed by a human rhinovirus 3C protease (HRV3C protease) recognition site. Point mutations were introduced into this construct using site-directed mutagenesis. These plasmids were utilized for all experimental procedures conducted in this study.
To examine the inhibition of binding to the crude membrane, mammalian Expi293 cells were co-transfected with the hMAP17 and hSGLT2 plasmids, as described. […] The extract solution from the filter plate was diluted with water containing candesartan as an internal standard, and the SGLT2 inhibitor concentration was quantified via LC–MS/MS.
(§5) Nonspecific binding was measured using the crude membrane of nontransfected Expi293 cells. Specific binding was calculated by subtracting nonspecific binding from the binding of hSGLT2-expressing cells. Specific binding was normalized to hSGLT2 protein expression levels, measured via FSEC. The equilibrium dissociation constant (Kd) and maximum number of binding sites (Bmax) were calculated via nonlinear regression in GraphPad Prism 8.4.3. […]

The target of the next assay is T3, hSGLT2 S74A (Homo sapiens, UniProt P31639, S74A).
T3 construct: expressed in transfected cells; host or cells: Expi293 cells, crude membrane fraction
T3 sequence (P31639 whole entry S74A, one chain of several): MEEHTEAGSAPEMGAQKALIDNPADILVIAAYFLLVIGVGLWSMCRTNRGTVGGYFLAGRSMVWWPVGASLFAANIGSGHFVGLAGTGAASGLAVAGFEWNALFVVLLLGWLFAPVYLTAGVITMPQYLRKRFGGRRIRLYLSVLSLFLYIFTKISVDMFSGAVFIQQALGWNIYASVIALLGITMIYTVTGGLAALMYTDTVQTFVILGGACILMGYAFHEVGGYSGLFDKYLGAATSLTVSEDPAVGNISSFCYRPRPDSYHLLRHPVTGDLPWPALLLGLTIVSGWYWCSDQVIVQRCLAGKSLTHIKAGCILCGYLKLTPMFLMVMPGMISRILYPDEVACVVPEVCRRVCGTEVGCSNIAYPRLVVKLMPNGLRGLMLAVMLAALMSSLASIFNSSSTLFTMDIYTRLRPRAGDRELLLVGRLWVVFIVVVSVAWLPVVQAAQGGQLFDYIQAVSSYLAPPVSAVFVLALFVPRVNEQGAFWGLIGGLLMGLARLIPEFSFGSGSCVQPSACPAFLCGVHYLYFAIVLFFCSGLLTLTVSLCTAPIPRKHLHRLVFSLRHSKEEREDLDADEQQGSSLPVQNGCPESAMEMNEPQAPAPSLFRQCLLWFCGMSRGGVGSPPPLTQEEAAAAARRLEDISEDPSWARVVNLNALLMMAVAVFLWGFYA
Format: binding. To be noted: S74A mutant.
Text: as §4
To examine the inhibition of binding to the crude membrane, mammalian Expi293 cells were co-transfected with the hMAP17 and hSGLT2 plasmids, as described. The cells were collected and disrupted by sonication in a hypotonic buffer (50 mM HEPES–NaOH (pH 7.5), 10 mM KCl and protease inhibitor cocktail) or Na^+-free hypotonic buffer (50 mM Tris–HCl (pH 7.5), 10 mM KCl and protease inhibitor cocktail). The cell debris were removed by centrifugation (2,000g, 5 min, 4 °C). The membrane fraction was collected by ultracentrifugation (112,000g, 30 min, 4 °C) and stored at −80 °C before use. […] The extract solution from the filter plate was diluted with water containing candesartan as an internal standard, and the SGLT2 inhibitor concentration was quantified via LC–MS/MS.
as §5
The concentrations of the extract solution from the filter plate and of the cell lysate were quantified using a tandem mass spectrometry QTRAP6500 System (SCIEX) coupled with an ACQUITY UPLC system (Waters) using the internal standard method. […]

Another assay concerns hSGLT2 V95I. Details: method as in PMID 34880493. To be noted: cited from earlier work.
A further assay concerns SGLT2. Details: method as in Hummel et al., Am. J. Physiol., Cell Physiol., 2011. The following applies: authors' rebuttal in peer review file; ref Hummel et al., Am. J. Physiol., Cell Physiol., 2011; cited from earlier work.
The next assay concerns SGLT1 T395A. Details: method as in PMID 30532032. The following applies: replacement of T395 with Ala at the Na3 site; cited from earlier work.

Positions count from the first letter of the chain named. Where “and” joins values, the source holds several entries; their conditions need not be identical. Identical values can stand only once.

For the compound `CCOc1ccc(Cc2cc([C@@H]3O[C@H](CO)[C@@H](O)[C@H](O)[C@H]3O)ccc2Cl)cc1` [Dapagliflozin], the “Binding (% of hSGLT2)” value in assay [1] (10 nM dapagliflozin) was 83.4507 % of hSGLT2 and 95.0704 % of hSGLT2 and 121.479 % of hSGLT2. Besides, in the assay with SGLT1 and SGLT2, the “fold difference in inhibition between SGLT1 and SGLT2” value was “more than 1,000 fold”; the “subtype specificity of inhibition (SGLT1 vs SGLT2)” value is given as “SGLT2-specific inhibition”. In assay [2] (10 nM dapagliflozin), the “Binding (% of hSGLT2)” value was 2.53 % of hSGLT2 and 3.518 % of hSGLT2 and 3.481 % of hSGLT2.

Take `CS[C@H]1O[C@@H](c2ccc(C)c(Cc3ccc(CCCC(=O)NC(C)(C)C(=O)NCCN(C)C)cc3)c2)[C@H](O)[C@@H](O)[C@@H]1O` [LX-2761]: the “subtype specificity of inhibition (SGLT1 vs SGLT2)” value with SGLT1 and SGLT2 is “dual inhibitors”.

The Kd is the free concentration of one partner at which half of the binding sites on the other are occupied at equilibrium, for simple one-to-one binding. High values mean lower affinity, low ones higher affinity. On to `O=C(CCc1ccc(O)cc1)c1c(O)cc(O)cc1O` [Phloretin], for which the “phloretin binding (in words)” value is reported as “binds as effectively as phlorizin” in assay [1] (WT), “not” on hSGLT2 D201A and “not” at hSGLT2 S74A. This compound came in with a Bmax in assay [1] (phloretin, WT, mean ± SEM n=4) of 51.7 ± 3.46 pmol/mg-protein. In assay [1] (phloretin, WT, mean ± SEM n=4), this compound yielded a Kd of 12000 ± 1900 nM.

For the compound `CCOc1ccc(Cc2cc([C@@H]3O[C@H](SC)[C@@H](O)[C@H](O)[C@H]3O)ccc2Cl)cc1` [Sotagliflozin], the “Binding (% of hSGLT2)” value in assay [1] (50 nM sotagliflozin) is 96.1006 % of hSGLT2 and 97.9874 % of hSGLT2 and 105.912 % of hSGLT2; in assay [2] (50 nM sotagliflozin), 19.1195 % of hSGLT2 and 17.8616 % of hSGLT2 and 17.9874 % of hSGLT2. The “subtype specificity of inhibition (SGLT1 vs SGLT2)” value in the assay on SGLT1 and SGLT2 was “dual inhibitors”.

As to `OC[C@H]1O[C@@H](n2cc(Cc3ccc(C4CC4)cc3)c3c(F)cccc32)[C@H](O)[C@@H](O)[C@@H]1O` [TA-1887], the “Binding (% of hSGLT2)” value is 96.8051 % of hSGLT2 and 101.597 % of hSGLT2 in assay [1] (10 nM TA-1887); 13.0351 % of hSGLT2 and 13.9457 % of hSGLT2 and 14.6645 % of hSGLT2 in assay [2] (10 nM TA-1887). Besides, the Bmax in assay [1] (Na(+), mean ± SEM n=3) turned out to be 4.67 ± 0.49 pmol/mg-protein; in assay [1] (Na(-), mean ± SEM n=3) it was 0.705 ± 0.155 pmol/mg-protein. Moreover, the Kd stood at 115 ± 28 nM in assay [1] (Na(+), mean ± SEM n=3) and 86.4 ± 50 nM in assay [1] (Na(-), mean ± SEM n=3). In addition, in assay [1] (absence vs presence of Na+), the “Bmax in the absence versus the presence of Na+ (in words)” value was “partially lower”. Further, the “subtype specificity of inhibition (SGLT1 vs SGLT2)” value with SGLT1 and SGLT2 is “SGLT2-specific inhibition”.

For the compound `OC[C@H]1O[C@@H](c2ccc(Cl)c(Cc3ccc(O[C@H]4CCOC4)cc3)c2)[C@H](O)[C@@H](O)[C@@H]1O` [empagliflozin], the “effect of V95I on inhibitory activity” value with hSGLT2 V95I is recorded as “reduces the inhibitory activity”. Also, the “subtype specificity of inhibition (SGLT1 vs SGLT2)” value with SGLT1 and SGLT2 is given as “SGLT2-specific inhibition”.

Turning to `OC[C@H]1OC(O)[C@H](O)[C@@H](O)[C@@H]1O` (stereo partly shown) [glucose], in the assay with SGLT2, the Michaelis constant is on record as 5 mM. Also, the “reduction in glucose affinity” value in the assay with SGLT1 T395A is “more than 30 fold”.
